Results from PMC7749516, “Safety and nonclinical and clinical pharmacokinetics of PC945, a novel inhaled triazole antifungal agent” (Pharmacology Research & Perspectives, 2020).
Converted amounts (≈) assume the structure as drawn. “And” between values parts separate entries of the source, which are not always exact repeats. Identical values can stand only once. Marks after values point to notes of the source that are not given here.

How the values were obtained:
[1] = Rat lung tissue concentration after 14 days of inhaled dosing; type: in vivo, rats (Han Wistar); settings: for Lung concentration: lungs ~22 hours after final dose (Day 15)
Procedure: Portions of rat lung tissue were homogenized in methanol:water (50:50; 15 mL for 1 g tissue). PC945 concentrations in tissue homogenates were analyzed using LC‐MS/MS. A control rat lung sample (B&K Universal Ltd, Hull, UK) was used as standards and quality control.

[2] = Toxicokinetics/toxicity in dogs, daily 2-hour inhalation for 14 days (plasma); settings: for Ro (accumulation ratio): AUC0‐24h (Day14)/AUC0‐24h (Day 1)
Source text: (§1) Each dose was inhaled over a 2‐hour period once daily for 14 days.
(§2) Lower limit of quantification of the assay was 10 pg/mL for clinical samples and 100 pg/mL for rat and dog plasma samples.

[3] = Toxicokinetics/toxicity in rats, daily 2-hour inhalation for 14 days (plasma); settings: for Ro (accumulation ratio): AUC0‐24h (Day14)/AUC0‐24h (Day 1)
Source text: as §1, §2

[4] = Clinical pharmacokinetics, single ascending inhaled dose in healthy subjects (Cohort 1); type: in vivo, human; settings: for AUC0–24h / C max / AUC0–∞ / t ½: geometric mean (CV%); for t max: median (range), postend of inhalation
Procedure: This PC945 first‐in‐human clinical trial (ClinicalTrials.gov Identifier: NCT02715570) was a two‐part randomized, placebo‐controlled study to assess the safety and tolerability of PC945 in both healthy subjects and subjects with mild asthma, conducted at Parexel Early Phase Clinical Unit (Harrow, UK). The study was considered single‐blind as the appearance of active and placebo doses were different, however, it was conducted in a double‐blind manner (employing separate dosing and assessment teams).
Part one consisted of a single dose escalation study (Cohort 1) and a repeat dose study (Cohort 2) of inhaled PC945 in healthy subjects. Part two comprised a single dose study of inhaled PC945 in subjects with mild asthma (Cohort 3). The doses selected were predicted to achieve target lung concentrations above the IC90/MIC90 for A. fumigatus (based on data from a range of in vitro and in vivo systems) throughout a 24‐hour period and with a suitable safety margin based on animal toxicology data.
In Cohort 1, 11 healthy subjects (three males and eight females; mean age: 48.5 years, mean weight: 65.32 kg, mean body mass index [BMI]: 23.62 kg/m^2), attended the single ascending dose study. Eight healthy subjects started the study in which two subjects were randomized to each of the four ascending dose treatment sequences (Table 1); two subjects withdrew due to adverse events unrelated to study medication and both were replaced. One of the replacement subjects subsequently withdrew from the study for personal reasons and was replaced by another subject (Figure 1). Overall, six subjects each received three of four doses of PC945 (0.5, 2, 5, and 10 mg) and one dose of placebo. These doses were administered with a minimum of 13 days interval to allow for washout.
Serial blood samples were collected to determine plasma PC945 concentrations. For the single dose study in healthy subjects and in subjects with mild asthma, blood samples were collected predose and at 0.25, 0.5, 1, 2, 4, 6, 8, 24, 30, and 48 hours postend of inhalation and at the follow‐up visit. For the repeat dose study, blood samples were collected (a) predose and at 0.25, 0.5, 1, 2, 4, 6, 8, 10, 12, and 24 hours postend of inhalation on Days 1 and 7, and 30 and 48 hours on Day 7; (b) predose on Days 5 and 6; (c) at the follow‐up visit.

CYP3A4/5 = assay: CYP inhibition in pooled human liver microsomes; type: in vitro ADME
Procedure: Microsomal reactions were terminated by adding 100 μL of cold (4°C) methanol containing appropriate internal standard. Aliquots (150 μL) of each sample were centrifuged and the supernatant was used for substrate analysis by ultra‐performance liquid chromatography with tandem mass spectrometry (UPLC‐MS/MS) on the day of incubations.
Change in substrate concentration was measured to determine the extent of CYP‐isoform inhibition. The 30‐minute preincubations were performed to determine whether there was time‐dependent inhibition of any CYP isoform (CYP1A2, 2B6, 2C8, 2C9, 2C19, 2D6, and 3A4/5). Untreated control contained only solvent, dimethyl sulfoxide (≤0.5% [v/v]).

[5] = female dogs, Day 14 of inhaled 1.7 mg/kg/day, mean
[6] = female dogs, Day 14 of inhaled 5.3 mg/kg/day, mean
[7] = female dogs, Day 14 of inhaled 18.1 mg/kg/day, mean
[8] = female dogs, single inhaled dose 1.7 mg/kg, mean ± SD
[9] = female dogs, single inhaled dose 5.3 mg/kg, mean ± SD
[10] = female dogs, single inhaled dose 18.1 mg/kg, mean ± SD
[11] = male dogs, Day 14 of inhaled 1.7 mg/kg/day, mean
[12] = male dogs, Day 14 of inhaled 5.3 mg/kg/day, mean
[13] = male dogs, Day 14 of inhaled 18.1 mg/kg/day, mean
[14] = male dogs, single inhaled dose 1.7 mg/kg, mean ± SD
[15] = male dogs, single inhaled dose 5.3 mg/kg, mean ± SD
[16] = male dogs, single inhaled dose 18.1 mg/kg, mean ± SD
[17] = female rats, Day 14 of inhaled 2.0 mg/kg/day
[18] = female rats, Day 14 of inhaled 7.1 mg/kg/day
[19] = female rats, Day 14 of inhaled 16.6 mg/kg/day
[20] = female rats, single inhaled dose 2.0 mg/kg (Day 1)
[21] = female rats, single inhaled dose 7.1 mg/kg (Day 1)
[22] = female rats, single inhaled dose 16.6 mg/kg (Day 1)
[23] = male rats, Day 14 of inhaled 2.0 mg/kg/day
[24] = male rats, Day 14 of inhaled 7.1 mg/kg/day
[25] = male rats, Day 14 of inhaled 16.6 mg/kg/day
[26] = male rats, single inhaled dose 2.0 mg/kg (Day 1)
[27] = male rats, single inhaled dose 7.1 mg/kg (Day 1)
[28] = male rats, single inhaled dose 16.6 mg/kg (Day 1)
[29] = substrate midazolam, 30‐minute preincubation

In the case of `Cc1cc(N2CCN(c3ccc(C(=O)Nc4ccc(F)cc4)cc3)CC2)ccc1OC[C@@H]1CO[C@@](Cn2cncn2)(c2ccc(F)cc2F)C1` [PC945], the “Ratio lung tissue concentration (Day 15)/plasma C max (Day 14)” value (“Ratio lung tissue concentration” below) ([1]; female rats, 2.0 mg/kg/day) is reported as 2610, the Lung concentration ([1]; female rats, 2.0 mg/kg/day for 14 days) is reported as 50 100 ng/mL and the “Ratio lung tissue concentration” value ([1]; female rats, 7.1 mg/kg/day) is reported as 2740. The Lung concentration ([1]; female rats, 7.1 mg/kg/day for 14 days) was 138 000 ng/mL, the “Ratio lung tissue concentration” value ([1]; female rats, 16.6 mg/kg/day) was 2340 and the Lung concentration ([1]; female rats, 16.6 mg/kg/day for 14 days) was 216 000 ng/mL. The “Mean lung:plasma ratio” value ([1]; male rats) was ~ 4300 fold, the “Ratio lung tissue concentration” value ([1]; male rats, 2.0 mg/kg/day) was 3450 and the Lung concentration ([1]; male rats, 2.0 mg/kg/day for 14 days) was 42 400 ng/mL. For the same molecule, the “Ratio lung tissue concentration” value ([1]; male rats, 7.1 mg/kg/day) was 5020, the Lung concentration ([1]; male rats, 7.1 mg/kg/day for 14 days) was 119 000 ng/mL and the “Ratio lung tissue concentration” value ([1]; male rats, 16.6 mg/kg/day) was 4280. For the same molecule, the Lung concentration ([1]; male rats, 16.6 mg/kg/day for 14 days) was 329 000 ng/mL, the “Lung concentration relative to plasma” value ([1]; rats, all dose levels, after 14‐day inhaled dosing) was > 2000 fold and the “Margin over the clinical AUC following a 5 mg dose” value ([2]; dog, highest dose tested) was “threefold”. For the same molecule, the “Time of C max after a single dose” value ([2]; dogs, after the 2‐hour dosing period) was “immediately”, the Systemic toxicity ([2]; dogs, highest dose tested) was “No systemic toxicity” and the “Ro (accumulation ratio)” value ([2]; female dogs, 1.7 mg/kg/day) was 2.27. The “Ro (accumulation ratio)” value ([2]; female dogs, 5.3 mg/kg/day) was 1.88, the “Ro (accumulation ratio)” value ([2]; female dogs, 18.1 mg/kg/day) was 1.26 and the “AUC0‐24h” value [2, 5] was 27.7 ng·h/mL. For the same molecule, the C max [2, 5] was 2.3 ng/mL, the “AUC0‐24h” value [2, 6] was 73.3 ng·h/mL and the C max [2, 6] was 5.5 ng/mL. For the same molecule, the “AUC0‐24h” value [2, 7] was 114 ng·h/mL, the C max [2, 7] was 7.8 ng/mL and the “AUC0‐24h” value [2, 8] was 12.2 ± 2.9 ng·h/mL. For the same molecule, the C max [2, 8] was 1.5 ± 0.5 ng/mL, the “AUC0‐24h” value [2, 9] was 39.0 ± 2.7 ng·h/mL and the C max [2, 9] was 4.3 ± 0.7 ng/mL. The “AUC0‐24h” value [2, 10] was 90.6 ± 6.7 ng·h/mL, the C max [2, 10] was 10.2 ± 1.3 ng/mL and the “Ro (accumulation ratio)” value ([2]; male dogs, 1.7 mg/kg/day) was 2.06. The “Ro (accumulation ratio)” value ([2]; male dogs, 5.3 mg/kg/day) was 1.84, the “Ro (accumulation ratio)” value ([2]; male dogs, 18.1 mg/kg/day) was 2.29 and the “AUC0‐24h” value [2, 11] was 35.5 ng·h/mL. For the same molecule, the C max [2, 11] was 2.8 ng/mL, the “AUC0‐24h” value [2, 12] was 70.9 ng·h/mL and the C max [2, 12] was 5.6 ng/mL. The “AUC0‐24h” value [2, 13] was 203 ng·h/mL, the C max [2, 13] was 13.5 ng/mL and the “AUC0‐24h” value [2, 14] was 17.2 ± 3.5 ng·h/mL. For the same molecule, the C max [2, 14] was 2.2 ± 0.3 ng/mL, the “AUC0‐24h” value [2, 15] was 38.5 ± 1.8 ng·h/mL and the C max [2, 15] was 4.6 ± 0.4 ng/mL. For the same molecule, the “AUC0‐24h” value [2, 16] was 88.5 ± 25.8 ng·h/mL, the C max [2, 16] was 9.7 ± 2.4 ng/mL and the “Ro (accumulation ratio)” value ([3]; female rats, 2.0 mg/kg/day) was 1.84. For the same molecule, the “Ro (accumulation ratio)” value ([3]; female rats, 16.6 mg/kg/day) was 2.53, the “AUC0‐24h” value [3, 17] was 336 ng·h/mL and the C max [3, 17] was 19.2 ng/mL. The “AUC0‐24h” value [3, 18] was 749 ng·h/mL, the C max [3, 18] was 50.4 ng/mL and the “AUC0‐24h” value [3, 19] was 1850 ng·h/mL. The C max [3, 19] was 92.3 ng/mL, the “AUC0‐24h” value [3, 20] was 183 ng·h/mL and the C max [3, 20] was 10.5 ng/mL. The “AUC0‐24h” value [3, 21] was 416 ng·h/mL, the C max [3, 21] was 24.8 ng/mL and the “AUC0‐24h” value [3, 22] was 731 ng·h/mL. For the same molecule, the C max [3, 22] was 41.3 ng/mL, the “Ro (accumulation ratio)” value ([3]; male rats, 2.0 mg/kg/day) was 1.96 and the “AUC0‐24h” value [3, 23] was 202 ng·h/mL. For the same molecule, the C max [3, 23] was 12.3 ng/mL, the “AUC0‐24h” value [3, 24] was 424 ng·h/mL and the C max [3, 24] was 23.7 ng/mL. The “AUC0‐24h” value [3, 25] was 1140 ng·h/mL, the C max [3, 25] was 76.9 ng/mL and the “AUC0‐24h” value [3, 26] was 103 ng·h/mL. The C max [3, 26] was 7.3 ng/mL, the “AUC0‐24h” value [3, 27] was 217 ng·h/mL and the C max [3, 27] was 15.8 ng/mL. For the same molecule, the “AUC0‐24h” value [3, 28] was 426 ng·h/mL, the C max [3, 28] was 26.0 ng/mL and the “Margin over the clinical AUC following a 5 mg dose” value ([3]; rat, highest dose tested) was 12 fold. For the same molecule, the “Time of C max after a single dose” value ([3]; rats, after the 2-hour inhalation) was 4 h, the Systemic toxicity ([3]; rats, highest dose tested) was “No systemic toxicity” and the “Time of C max after the start of dosing” value ([3]; rats, single 2-hour inhaled dose (Day 1)) was 6 h. The “Increase in C max for a doubling in dose” value ([4]; single doses 0.5 to 10 mg, 90% CI 1.54, 2.02) was 1.77 fold, the “Increase in AUC0–24h for a doubling in dose” value ([4]; single doses 0.5 to 10 mg, 90% CI 1.64, 2.15) was 1.88 fold and the “AUC0–24h” value ([4]; single inhaled 0.5 mg) was 726 (73.4) ^a pg•h/mL. For the same molecule, the C max ([4]; single inhaled 0.5 mg) was 54.7 (64.8) ^a pg/mL, the “AUC0–∞” value ([4]; single inhaled 0.5 mg, n = 2) was 1480 (7.41) ^b pg•h/mL and the “t ½” value ([4]; single inhaled 0.5 mg, n = 2, considered unreliable) was 36.9 (24.1) ^b h. For the same molecule, the t max ([4]; single inhaled 0.5 mg) was 1 h and 1.10 (0.250‐2.10) ^a h, the “AUC0–24h” value ([4]; single inhaled 2 mg) was 1990 (102) pg•h/mL and the C max ([4]; single inhaled 2 mg) was 128 (107) pg/mL. The “AUC0–∞” value ([4]; single inhaled 2 mg, n = 3) was 3140 (175) ^c pg•h/mL, the “t ½” value ([4]; single inhaled 2 mg, n = 3, considered unreliable) was 27.9 (58.4) ^c h and the t max ([4]; single inhaled 2 mg) was 4 h and 4.11 (2.09‐8.11) h. The “AUC0–24h” value ([4]; single inhaled 5 mg) was 5440 (48.0) pg•h/mL, the C max ([4]; single inhaled 5 mg) was 322 (51.1) pg/mL and the “t ½” value ([4]; single inhaled 5 mg, n = 4, considered unreliable) was 37.3 (36.4) ^d h. The t max ([4]; single inhaled 5 mg) was 5 h and 5.10 (2.08‐8.12) h, the C max ([4]; single inhaled 10 mg) was 619 (39.1) pg/mL and the “t ½” value ([4]; single inhaled 10 mg, considered unreliable) was 110 (16.5) h. The t max ([4]; single inhaled 10 mg) was 2 h and 2.13 (0.330‐6.15) h, the “Shift in potency for CYP3A4/5 following preincubation” value (CYP3A4/5) was “fivefold” and the “IC50, CYP3A4/5” value (CYP3A4/5; microsomes) was 0.168 µg/mL (≈ 0.246 µM). The IC50 (CYP3A4/5; [29]) was 17 nM, the “IC50, CYP3A4/5” value (CYP3A4/5; [29]) was 0.0116 µg/mL (≈ 0.017 µM) and the IC50 (CYP3A4/5; substrate midazolam, without preincubation, pooled human liver microsomes) was 85 nM.
